One block for each compound: values may come before it.
How the values were obtained:
[1] = background statement; cited from earlier work
[2] = Stability, hygroscopicity and crystallization of salts and compositions; format: physicochemical
[3] = pH measurement of oral solutions diluted with water 1:10 and of sodium sulindac solution; format: physicochemical
Source text: The results are shown below.

Structure (SMILES): CC1=C(CC(=O)O)c2cc(F)ccc2/C1=C\c1ccc([S+](C)[O-])cc1 (stereo not drawn) [Sulindac]
absorption from the gastrointestinal tract [1]: erratically absorbed

stability [2]: good stability
pH of solutions, in words ([3]; compared with sodium sulindac solutions): acceptable for formulation
Structure (SMILES): CC1=C(CC(=O)O)c2cc(F)ccc2/C1=C\c1ccc([S+](C)[O-])cc1 (stereo not drawn) [calcium sulindac]

hygroscopicity [2]: strongly hygroscopic
crystallization ([2]; in our hands): difficult to crystallize
pH of aqueous solution ([3]; aqueous solution, 4%): 10.99
Structure (SMILES): CC1=C(CC(=O)O)c2cc(F)ccc2/C1=C\c1ccc([S+](C)[O-])cc1 (stereo not drawn) [sodium sulindac]
